Literature values, collected in patent publication US20080081067A1, “SUSTAINED RELEASE PHARMACEUTICAL COMPOSITIONS OF VENLAFAXINE AND PROCESS FOR PREPARATION THEREOF” (priority 2006, published 2008).

Tested on: monoamine oxidase
Settings: background statement

In the case of COc1ccc(C(CN(C)C)C2(O)CCCCC2)cc1 (stereo not shown) [Venlafaxine], the “inhibitory activity on monoamine oxidase” value is given as “no inhibitory activity”.
